By EC50 is commonly meant the concentration that produces a half-maximal response.

“Also recorded” adds a separate entry of the source. Like-named read-outs stand apart in the source and are kept apart here.

Assay [1] relates to SK-OV-3 MDR1-M6/6 cells. The assay can be described thus: SRB assay in Pgp-expressing SK-OV-3 MDR1-M6/6 cells. The class given is cell-based. The conditions noted are these: Homo sapiens, SKOV3-MDR1-M6/6, read-out: IC50 ± SD in SK-OV-3 MDR1-M6/6 Cells. Here is the method:
(§1) Comparison of the IC50 values in the parental SK-OV-3 and genetically manipulated SK-OV-3 MDR1-M6/6 cell line allows for the calculation of a relative resistance value, designated Rr. This value is calculated by dividing the IC50 value obtained in the Pgp-expressing SK-OV-3 MDR1-M6/6 cells by the IC50 obtained in the parental SK-OV-3 cells.
(§2) The antiproliferative and cytotoxic effects of the compounds in cancer cells were evaluated using the SRB assay as previously described. MDA-MB-435 cells were obtained from the Lombardi Cancer Center of Georgetown University (Washington, DC, USA). SK-OV-3 and HeLa cells were purchased from ATCC. Details about the generation of the SK-OV-3 MDR1-M6/6 and HeLa WTβIII cells were described previously. The IC50 values represent an average of three independent experiments, each conducted using triplicate points.
(§3) HeLa, A-10, SK-OV-3, and SK-OV-3 MDR1-M6/6 cells were grown in Basal Medium Eagle (Sigma-Aldrich, St. Louis, MO, USA) supplemented with 10% FBS (Hyclone, GE Life Sciences, Logan, UT, USA) 1% GlutaMAX (Gibco, Life Technologies, Waltham, MA, USA) and 50 µg/mL gentamycin (Life Technologies, USA). HeLa WTβIII cells were grown in Dulbecco’s Modified Eagle Medium (Life Technologies) supplemented with 10% FBS and 50 µg/mL gentamycin. MDA-MB-435 cells were maintained in Improved Minimum Essential Medium (Life Technologies) supplemented with 10% FBS and 25 µg/mL gentamycin. All cells were grown at 37 °C in a humidified environment with 5% CO2.
For orientation: The SRB assay estimates cell density from bound dye.

The subject of assay [2] is A-10 cells. As to the kind of experiment: Cellular microtubule depolymerization in A-10 cells (immunofluorescence). The class given is cell-based. As to conditions: for EC50: Rattus norvegicus, A10, 18 h, loss of 50% of interphase microtubules; for Microtubule depolymerization activity in A-10 cells: at a 10 µM concentration. Here is the method: (§4) We investigated the microtubule depolymerization and the antiproliferative activities of compounds 4–14 (Table 2). […] We next evaluated the importance of the 4′-OMe group of compound 4 by replacing it with an isosteric 4′-SMe (5). […] Clearly, this further substantiated the importance of an S in the scaffold over an NH.
The effects of the compounds on cellular microtubules were evaluated in A-10 cells using indirect immunofluorescence microscopy. These cells were obtained from the American Type Culture Collection (ATCC) (Manassas, VA, USA). Cells were treated with the compounds of interest for 18 h, and the cells fixed with cold MeOH and microtubule structures were visualized using a β-tubulin antibody (Sigma-Aldrich, St. Louis, MO, USA). The concentration that caused loss of 50% of the interphase microtubules was defined as the EC50 and calculated as previously described. These values represent an average of at least three independent experiments.

Assay [3] deals with tubulin. The assay can be described thus: Inhibition of [3H]colchicine binding to tubulin. As to conditions: compound at 5 μM, 5.0 µM [3H]colchicine, 1.0 µM tubulin. Also on record: species or system Bovine. On the procedure:
Bovine brain tubulin was purified as described previously. The tubulin assembly assay has been described in detail. Briefly, 1.0 mg/mL of tubulin (10 µM) was preincubated for 15 min at 30 °C in 0.8 M monosodium glutamate (pH of 2 M stock solution adjusted to 6.6 with HCl), varying compound concentrations and 4% (v/v) DMSO as compound solvent. After the preincubation, the reaction mixtures were placed on ice and 0.4 mM GTP was added. The reaction mixtures were transferred to cuvettes at 0 °C in a recording spectrophotometer equipped with an electronic temperature controller. After baselines were established, the temperature was elevated over about 30 s to 30 °C, and changes in turbidity were monitored at 350 nm for 20 min. The compound concentration that caused a 50% reduction in increase in turbidity, interpolated from the values obtained with defined compound concentrations, was defined as the IC50 value. The assay to measure inhibition of [^3H]colchicine binding was described in detail previously. Briefly, 0.1 mg/mL (1.0 µM) tubulin was incubated at 37 °C with 5.0 µM [3H]colchicine and potential inhibitors at 5.0 µM. […] The [^3H]colchicine was a product of PerkinElmer, USA.

In assay [4] the test system is HeLa cells. The assay can be described thus: SRB assay in HeLa cells. As to conditions: Homo sapiens, read-out: IC50 ± SD in HeLa. The class given is cell-based. Here is the method:
(§5) Compounds 4–8, 10, 12, and 13 were evaluated for their abilities to overcome βIII-tubulin mediated drug resistance using an isogenic HeLa cell line pair (Table 4). […] The Rr values (Table 4) were calculated by dividing the IC50 of the βIII-tubulin expressing line by the IC50 obtained in the parental HeLa cells.
as §2, §3

The test system of assay [5] is SK-OV-3 cells. As to the kind of experiment: SRB assay in SK-OV-3 cells. It is filed as cell-based. As to conditions: Homo sapiens, read-out: IC50 ± SD in SK-OV-3 Cells. On the procedure: as §1, §2, §3
Assay [6] deals with HeLa WTβIII cells. As to the kind of experiment: SRB assay in βIII-tubulin expressing HeLa WTβIII cells. It is filed as cell-based. The conditions noted are these: Homo sapiens, read-out: IC50 ± SD in HeLa WTβ3. Here is the method: as §5, §2, §3
In assay [7] the test system is Bovine brain tubulin. As to the kind of experiment: Inhibition of purified tubulin assembly (turbidity). It is filed as biochemical. The conditions noted are these: 10 µM tubulin, 30 °C; read-out: Inhibition of Tubulin Assembly IC50 ± SD. Here is the method:
Bovine brain tubulin was purified as described previously. The tubulin assembly assay has been described in detail. Briefly, 1.0 mg/mL of tubulin (10 µM) was preincubated for 15 min at 30 °C in 0.8 M monosodium glutamate (pH of 2 M stock solution adjusted to 6.6 with HCl), varying compound concentrations and 4% (v/v) DMSO as compound solvent. After the preincubation, the reaction mixtures were placed on ice and 0.4 mM GTP was added. The reaction mixtures were transferred to cuvettes at 0 °C in a recording spectrophotometer equipped with an electronic temperature controller. After baselines were established, the temperature was elevated over about 30 s to 30 °C, and changes in turbidity were monitored at 350 nm for 20 min. The compound concentration that caused a 50% reduction in increase in turbidity, interpolated from the values obtained with defined compound concentrations, was defined as the IC50 value. The assay to measure inhibition of [^3H]colchicine binding was described in detail previously. Briefly, 0.1 mg/mL (1.0 µM) tubulin was incubated at 37 °C with 5.0 µM [3H]colchicine and potential inhibitors at 5.0 µM. Incubation was for 10 min, at which point the reaction had reached 40–60% of the maximum colchicine that can be bound in reaction mixtures without inhibitor. The [^3H]colchicine was a product of PerkinElmer, USA. CA-4 was a generous gift of Dr. G. R. Pettit, Arizona State University.

The subject of assay [8] is MDA-MB-435 cells. As to the kind of experiment: Antiproliferative SRB assay in MDA-MB-435 cells. The class given is cell-based, human. As to conditions: read-out: IC50 ± SD in MDA-435 Cells. On the procedure:
as §4, §2, §3

As for `COc1ccc(N(C)c2ncnc3sc4c(c23)CCCC4)cc1` [Compound 7, N-(4-methoxyphenyl)-N-methyl-5,6,7,8-tetrahydrobenzo[4,5]thieno[2,3-d]pyrimidin-4-amine], the IC50 in assay [1] is 0.0471 ± 0.0076 µM; in assay [4], 0.0572 ± 0.0085 µM; in assay [5], 0.037 ± 0.0062 µM; in assay [6] it was 0.038 ± 0.0039 µM; in assay [7], 0.49 ± 0.06 µM; in assay [8] (Homo sapiens), less than 0.04 µM. Moreover, in assay [8], the IC50 was 0.0368 ± 0.0052 µM. The same compound yielded an EC50 in assay [2] of 0.045 µM. Further, the “Inhibition of Colchicine Binding (% inhibition ± SD)” value (“Inhibition … (% inhibition ± SD)” for short) in assay [3] is on record as 95.0 ± 0.40%.
As for `COc1ccc2c(c1)CCCN2c1nc(N)nc2sc3c(c12)CCCC3` [Compound 6, 4-(6-Methoxy-3,4-dihydroquinolin-1(2H)-yl)-5,6,7,8-tetrahydrobenzo[4,5]thieno[2,3-d]-pyrimidin-2-amine], the IC50 in assay [1] came out at 0.0917 ± 0.012 µM; in assay [4], 0.123 ± 0.012 µM; in assay [5] it was 0.0925 ± 0.0033 µM; in assay [6], 0.0803 ± 0.0064 µM; in assay [8] (Homo sapiens), 0.0596 ± 0.0118 µM. This compound yielded an EC50 in assay [2] of 0.121 µM.
Take `Cc1nc(Nc2ccc3c(O)cccc3c2)c2c3c(sc2n1)CCCC3` [Compound 14, 6-((2-Methyl-5,6,7,8-tetrahydrobenzo[4,5]thieno [2,3-d]pyrimidin-4-yl)amino)naphthalen-1-ol]: the “Microtubule depolymerization activity in A-10 cells” value in assay [2] was “did not show any activity; also recorded: Not MT active ^c”.
Consider `COc1ccc(N(C)c2nc(C)nc3sc4c(c23)CCCC4)cc1` [Compound 8, N-(4-methoxyphenyl)-N,2-dimethyl-5,6,7,8-tetrahydrobenzo[4,5]thieno[2,3-d]pyrimidin-4-amine], for which the IC50 in assay [1] came to 0.0575 ± 0.0005 µM; in assay [4] it was 0.0879 ± 0.0088 µM; in assay [5], 0.0477 ± 0.0012 µM; in assay [6], 0.0813 ± 0.0052 µM; in assay [7], 0.56 ± 0.09 µM; in assay [8] (Homo sapiens), 0.053 ± 0.0003 µM. In assay [2], this compound returned an EC50 of 0.052 µM. Besides, the “Inhibition … (% inhibition ± SD)” value in assay [3] is given as 96.0 ± 0.40%.
In assay [2], `COc1ccc(/C=C\c2cc(OC)c(OC)c(OC)c2)cc1O` [CA-4, combretastatin A-4] had an EC50 of 0.013 µM. For the same compound, the IC50 in assay [7] is 1 ± 0.09 µM; in assay [8] (Homo sapiens), 0.0034 ± 0.0006 µM.
With `COc1cccc2cc(N(C)c3nc(C)nc4sc5c(c34)CCCC5)ccc12` [Compound 13, N-(5-methoxynaphthalen-2-yl)-N,2-dimethyl-5,6,7,8-tetrahydrobenzo[4,5]thieno[2,3-d]pyrimidin-4-amine], the IC50 was found to be 0.143 ± 0.244 µM in assay [1]; 0.17 ± 0.034 µM in assay [4]; 0.142 ± 0.022 µM in assay [5]; 0.139 ± 0.02 µM in assay [6]; 0.0813 ± 0.0084 µM in assay [8] (Homo sapiens). Also, the EC50 in assay [2] was 0.118 µM.
As for `CSc1ccc(Nc2nc(C)nc3sc4c(c23)CCCC4)cc1` [Compound 11, 2-Methyl-N-(4-(methylthio)phenyl)-5,6,7,8-tetrahydrobenzo[4,5]thieno[2,3-d]pyrimidin-4-amine], in assay [2], the “Microtubule depolymerization activity in A-10 cells” value is listed as “did not show any activity; also recorded: Not MT active ^c”.
Take `CSc1ccc(N(C)c2nc(C)nc3sc4c(c23)CCCC4)cc1` [Compound 10, N,2-dimethyl-N-(4-(methylthio)phenyl)-5,6,7,8-tetrahydrobenzo[4,5]thieno[2,3-d]pyrimidin-4-amine]: the IC50 in assay [1] was determined as 0.209 ± 0.04 µM; in assay [4], 0.146 ± 0.014 µM; in assay [5], 0.136 ± 0.015 µM; in assay [6], 0.108 ± 0.0086 µM; in assay [7] it was 0.54 ± 0.08 µM; in assay [8] (Homo sapiens) it was 0.0877 ± 0.0047 µM. In addition, in assay [2], the EC50 was determined as 0.157 µM. The “Inhibition … (% inhibition ± SD)” value in assay [3] was found to be 89.0 ± 0.20%.
Consider `CSc1ccc(N(C)c2nc(N)nc3sc4c(c23)CCCC4)cc1` [Compound 5, N4-methyl-N4-(4-(methylthio)phenyl)-5,6,7,8-tetrahydrobenzo[4,5]thieno[2,3-d] pyrimidine-2,4-diamine], for which the IC50 is 0.0741 ± 0.011 µM in assay [1]; 0.0643 ± 0.0043 µM in assay [4]; 0.0718 ± 0.0053 µM in assay [5]; 0.0441 ± 0.0048 µM in assay [6]; 0.49 ± 0.08 µM in assay [7]; less than 0.04 µM in assay [8] (Homo sapiens). The IC50 in assay [8] was 0.0386 ± 0.0056 µM. The same compound returned an EC50 in assay [2] of 0.07 µM. Moreover, the “Inhibition … (% inhibition ± SD)” value in assay [3] is recorded as 94.0 ± 2.0%.
As for `COc1ccc2c(c1)CCCN2c1nc(C)nc2sc3c(c12)CCCC3` [Compound 12, 4-(6-Methoxy-3,4-dihydroquinolin-1(2H)-yl)-2-methyl-5,6,7,8-tetrahydrobenzo[4,5]thieno[2,3-d]pyrimidine], the IC50 in assay [1] is 0.223 ± 0.0094 µM; in assay [4], 0.191 ± 0.0081 µM; in assay [5], 0.178 ± 0.0011 µM; in assay [6], 0.203 ± 0.012 µM; in assay [8] (Homo sapiens) it was 0.125 ± 0.014 µM. For the same compound, a half-maximal response in assay [2] (EC50) required 0.15 µM.
For `COc1ccc(Nc2nc(C)nc3sc4c(c23)CCCC4)cc1` [Compound 9, N-(4-methoxyphenyl)-2-methyl-5,6,7,8-tetrahydrobenzo[4,5]thieno[2,3-d]pyrimidin-4-amine], in assay [2], the “Microtubule depolymerization activity in A-10 cells” value is listed as “did not show any activity; also recorded: Not MT active ^c”.

Source of the values: PMC8747035, “Design, Synthesis, and Biological Evaluation of 5,6,7,8-Tetrahydrobenzo[4,5]thieno[2,3-d]pyrimidines as Microtubule Targeting Agents” (Molecules, 2022).
